# Reference: paper PMC12684391, “Mechanistic insights into the monotherapy and combination potential of FEN1 inhibition in cancer therapy” (Nucleic Acids Research, 2025)
# Legend:
# [1] = system: FEN1 chromatin enrichment in HeLa cells; test: Chromatin retention assay (immunofluorescence, CSK-extracted cells); assay type: cell-based; details: 24 h treatment
# Protocol: HeLa cells were seeded at a density of 4000 cells per well in 100 μl of media in collagen-coated 96-well plates (Revvity, #6055700). Sixteen to twenty-four hours after seeding, compounds were dispensed using the D300e digital dispenser (Tecan) to generate a multipoint dose–response curve, equalized to final DMSO concentration. After 24 h, cells were washed with phosphate buffered saline (PBS) and pre-extracted with 50 μl of ice-cold cytoskeletal (CSK) buffer [10 mM PIPES pH 6.8 (Sigma–Aldrich, P8203-50G), 100 mM NaCl (VWR, 27810.295), 300 mM sucrose (Sigma–Aldrich, S0389-500G), 1.5 mM MgCl2 (VWR, 8760.29), 5 mM EDTA (Sigma–Aldrich, E7889-100ML), 0.4% Triton […] (Sigma–Aldrich, T9285-500ML)], for 4 min on ice. Cells were then washed with PBS and fixed in 4% paraformaldehyde (PFA) (ChemCruz, sc-281692) for 10 min at room temperature.
# For immunofluorescence staining, cells were washed with PBS then blocked and permeabilized with PBS containing 0.5% bovine serum albumin (BSA) and 0.5% Triton X-100 (blocking buffer) for 1 h at room temperature. Cells were then stained with the indicated markers (FEN1 or PARP1) by incubation with primary antibodies (Supplementary Table S5) diluted in blocking buffer, at room temperature for 4 h (FEN1) or overnight at 4°C (PARP1). […]
# [2] = system: DLD-1 BRCA2KO cells; test: Cell viability assay (AlamarBlue), 7 days; assay type: cell-based
# Protocol: Cells were seeded in 96-well plates and treated the day after seeding with a serial dilution of compounds in technical duplicates. After 7 days, viability was analyzed using the AlamarBlue reagent (BioRad). AlamarBlue was added in an amount equal to 10% of the volume in the well and after a 4–6 h incubation viability was determined by fluorescence analysis using a standard plate reader. Fluorescence was normalized to vehicle treated control for each cell line, and data were fitted in Genedata Screener to generate compound sensitivity curves and determine IC50 or EC50 (half maximal inhibitory/effective concentration) values as indicated.
# [3] = system: MMEJ (resection independent reporter); test: Extrachromosomal MMEJ reporter assay, resection independent, HEK-293; assay type: cell-based
# Protocol: MMEJ resection-independent and MMEJ resection-dependent reporter assays performed as previously described. In brief, HEK-293 cells were resuspended in supplemented SF nucleofection solution (Lonza) containing nanoluciferase DNA substrate and Firefly luciferase plasmid (Promega) at a ratio of 100 μl SF: 1500 ng nanoluciferase substrate: 1000 ng Firefly plasmid: ∼1.5 × 10^6 cells. Cells were electroporated and recovered into fresh media before seeding into a 96-well plate pre-dosed with compounds and DMSO control.
# After 24 h, Firefly and NanoLuc levels were detected using the Nano-Glo® Dual-Luciferase® Reporter Assay system (Promega) as per the manufacturer’s instructions. NanoLuc luminescence (reporter) was normalized to Firefly luminescence (control) to determine substrate repair. Percentage repair was calculated relative to the DMSO control.
# [4] = molecular target: T1, FEN1(1-380)-6His (Homo sapiens, UniProt P39748); test: Surface plasmon resonance on immobilized FEN1; assay type: binding; details: SPR, 25°C, mean of n = 4 surfaces; for Kd: 1:1 Langmuir model; for residence time: read-out: τ (residence time)
# T1 construct: FEN1(1-380)-6His was immobilized on a CM5 chip; made in house; host or cells: Escherichia coli
# Protocol: The kinetic parameters of the interaction between FEN1 and small molecules were assessed by surface plasmon resonance (SPR). FEN1(1-380)-6His was immobilized on a CM5 chip (Series S, Cytiva, Uppsala, Sweden) via standard amine coupling procedure at 25°C. Prior to immobilization, the carboxymethylated surface of the CM5 chip was activated with 400 mM 1-ethyl-3-(3-dimethylaminopropyl)-carbodiimide and 100 mM N-hydroxysuccinimide for 7 min. FEN1 was diluted to 10 µg/ml in 10 mM Bis–Tris pH 6.50 and injected in the presence of 2 µM of an active site binder on the CM5 chip for 3 or 4 min resulting in immobilization levels between 1300 and 3100 response units (RU). The remaining activated carboxymethylated groups were blocked with a 7 min injection of 1 M ethanolamine pH 8.50. HBS-N pH 7.40 was used as the background buffer during immobilization.
# All compounds were prediluted in DMSO, diluted 1:50 in running buffer (20 mM Tris–HCl pH 7.50, 100 mM KCl, 1 mM DTT, 5 mM MgCl2, 0.05% Tween-20, and 2% DMSO) and injected at 10 different concentrations using two-fold dilution series. A DMSO solvent correction (10 steps, 1.4%–2.8%) was performed to account for variations in bulk signal and to achieve high-quality data. Interaction analysis cycles consisted of a 150 s sample injection (30 μl/min; association phase) followed by 300 s of buffer flow (dissociation phase).
# Experiments were performed on a Biacore 8K+ (Cytiva, Uppsala, Sweden) at 25°C and the interactions were evaluated using the Biacore Insight evaluation software (version 5.0). All sensorgrams were processed by first subtracting the signal of the control surface (reference spot) from the binding response, followed by subtraction of the buffer blank injection from the reaction spot (double referencing). All datasets were fitted to a simple 1:1 Langmuir interaction model to determine the kinetic rate constants (using as offset RI = const = 0 and for Rmax either global or local, if the surface generation was not complete between consecutive cycles). Reported kinetic parameters are mean values from four independent FEN1 surfaces (n = 4).
# T1 sequence (P39748 whole entry): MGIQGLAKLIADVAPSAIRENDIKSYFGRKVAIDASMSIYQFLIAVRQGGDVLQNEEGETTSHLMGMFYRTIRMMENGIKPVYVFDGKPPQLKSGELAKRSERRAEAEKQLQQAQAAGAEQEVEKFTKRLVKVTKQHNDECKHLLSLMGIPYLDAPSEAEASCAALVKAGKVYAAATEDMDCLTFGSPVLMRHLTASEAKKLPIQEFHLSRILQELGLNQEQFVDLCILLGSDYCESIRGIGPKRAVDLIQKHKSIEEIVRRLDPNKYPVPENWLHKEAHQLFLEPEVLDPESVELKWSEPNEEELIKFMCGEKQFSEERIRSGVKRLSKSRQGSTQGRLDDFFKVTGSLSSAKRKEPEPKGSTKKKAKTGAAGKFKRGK
SMILES,"EC50 ([1]; Homo sapiens, unchallenged HeLa cells)","EC50 ([2]; Homo sapiens, 168 h, DLD-1 BRCA2KO, 7 days, AlamarBlue, N = 3)",Sensitivity of DLD-1 BRCA2KO relative to parental DLD-1 cells ([2]; more sensitive than isogenic DLD-1 wild-type),"EC50 ([3]; Homo sapiens, HEK293, resection independent reporter, HEK-293, 24 h, read-out: MMEJ inhibition EC50)","MMEJ potency relative to ART558 ([3]; lower potency than ART558, both reporters)",Kd [4],koff [4],kon [4],residence time [4],Chromatin enrichment (of either FEN1 or PARP1) and DNA damage signalling ([1]; HeLa cells),"Sensitivity of cell lines (viability) ([2]; DLD-1 and DLD-1 BRCA2KO, 7 days, AlamarBlue, compared with MSC778)","Inhibited MMEJ ([3]; both reporters, HEK-293)"
C[C@H](Oc1nn2c(c(O)c1=O)C(=O)N1CCOC[C@@H]1C2)c1ccc2ccc(Cl)cc2c1 [MSC778],1200 nM,220 nM,~10 fold,1000 nM,10–20 fold,2.9 nM,0.00052 s⁻¹,180000 M⁻¹ s⁻¹,32 min,–,–,–
C[C@@H](Oc1nn2c(c(O)c1=O)C(=O)N1CCOC[C@@H]1C2)c1ccc2ccc(Cl)cc2c1 [MSC781],–,–,–,–,–,23 nM,0.0034 s⁻¹,150000 M⁻¹ s⁻¹,4.8 min,not enhanced,much less sensitive,not
